From patent publication US20240209001A1, “HETEROCYCLIC DERIVATIVES AS JANUS KINASE INHIBITORS” (CHIESI FARMACEUTICI S.P. A., priority 2021, published 2024)

What was measured:
TYK2 = TYK2 (Homo sapiens (Human), UniProt P29597); test: Biochemical potency on Tyk2, TR-FRET LANCE Ultra kinase assay (compounds 1-92); settings: ATP at Km, read-out: Tyk2 inhibitory activity (pIC50 class) (converted)
Procedure: (§1) Biochemical Potency on JAK1, JAK2, JAK3 and Tyk2 Assay Principle The objective of this study was to assess the capability of compounds to inhibit all 4 JAK isoforms activity in a cell-free environment. Assay for JAK 1, JAK 2, JAK 3 and TYK2 were performed by Time-resolved fluorescence resonance energy transfer (TR-FRET) technology. It consists in the interaction of two labelled binding partners detected by the energy transfer from an excited donor to an acceptor dye and measurement of light emission by the acceptor dye. LANCE Ultra kinase assay was used. In presence of JAK 1, JAK 2, JAK 3 and TYK2 kinases and ATP (corresponding to Km), the ULight peptide substrate (LANCE Ulight-JAK-1 ([…]) Peptide, Perkin Elmer, TRF0121) is phosphorylated. It is then captured by Eu-anti-phospho-substrate antibody (LANCE Eu-W1024 Anti-phosphotyrosine (PT66), Perkin Elmer, AD0069), which bring the Eu-chelate donor and ULight acceptor dyes into close proximity. Upon excitation at 320 nm, the Eu-chelate transfers its energy to the ULight dye, resulting in a fluorescent light emission at 665 nm. Compound Testing Serial dilutions of compounds in pure DMSO are prepared from 10 mM DMSO stock solutions. Compounds were tested in 384-well plate for 11 consecutive 5-fold dilutions starting from 20 μM highest concentration (20 μM-[…]). 200 nL of compound were transferred from mother plate to test plate by using Mosquito (TTP labtech). Assay was performed in 384-well Perkin Elmer test plate in 20 μL assay volume (kinase reaction) and 40 μL total volume (stopping reagent and antibody detection reagents). In 10 μL of substrate solution (peptide+ATP) 30/50/20/10 nM of peptide and 20/0.7/0.2/12 μM of ATP were added for JAK 1, JAK 2, JAK 3 and TYK2 respectively. 10 μL of enzyme solution was added to kinase reaction at these concentrations: 0.15/0.083/0.025/0.144 ng/μL of JAK 1, JAK 2, JAK 3 and TYK2 respectively. After shaking and 1.5 h of incubation at r.t., 20 μL of Stop (10 μL EDTA) and Detection mixture (10 μL Europium-anti-phospho antibody, final: 0.5 nM) were added. Reading was performed after 1 h of incubation on a EnVision 2104 reader (Perkin Elmer). Calculation of IC50 data, curves and QC analysis was performed by using Excel tool and GraphPadPrism software, v9. Briefly, individual concentration-effect curves are generated by plotting the logarithm of the tested concentration of tested compounds (X) vs. corresponding percent inhibition values (Y) using least squares (ordinary) fit. Best fit IC50 values are calculated using Log(inhibitor) vs. normalized response-Variable slope equation, where Y=100/(1+10^((Log IC50-X)*HillSlope)). QC criteria parameters (Z', S:B, R2, HillSlope) were checked for every IC50 curve. Calculation of IC50 data, curves and QC analysis were made using Excel tools and GraphPadPrism software. QC criteria parameters: Z'≥0.5, Hill Slope range 0.5 to 5, S:B>2.

JAK 1 = JAK 1 (Homo sapiens (Human), UniProt P23458); test: Biochemical potency on JAK1, TR-FRET LANCE Ultra kinase assay (compounds 1-92); settings: ATP at Km, read-out: JAK1 inhibitory activity (pIC50 class) (converted)
Chain of JAK 1 (P23458 whole entry): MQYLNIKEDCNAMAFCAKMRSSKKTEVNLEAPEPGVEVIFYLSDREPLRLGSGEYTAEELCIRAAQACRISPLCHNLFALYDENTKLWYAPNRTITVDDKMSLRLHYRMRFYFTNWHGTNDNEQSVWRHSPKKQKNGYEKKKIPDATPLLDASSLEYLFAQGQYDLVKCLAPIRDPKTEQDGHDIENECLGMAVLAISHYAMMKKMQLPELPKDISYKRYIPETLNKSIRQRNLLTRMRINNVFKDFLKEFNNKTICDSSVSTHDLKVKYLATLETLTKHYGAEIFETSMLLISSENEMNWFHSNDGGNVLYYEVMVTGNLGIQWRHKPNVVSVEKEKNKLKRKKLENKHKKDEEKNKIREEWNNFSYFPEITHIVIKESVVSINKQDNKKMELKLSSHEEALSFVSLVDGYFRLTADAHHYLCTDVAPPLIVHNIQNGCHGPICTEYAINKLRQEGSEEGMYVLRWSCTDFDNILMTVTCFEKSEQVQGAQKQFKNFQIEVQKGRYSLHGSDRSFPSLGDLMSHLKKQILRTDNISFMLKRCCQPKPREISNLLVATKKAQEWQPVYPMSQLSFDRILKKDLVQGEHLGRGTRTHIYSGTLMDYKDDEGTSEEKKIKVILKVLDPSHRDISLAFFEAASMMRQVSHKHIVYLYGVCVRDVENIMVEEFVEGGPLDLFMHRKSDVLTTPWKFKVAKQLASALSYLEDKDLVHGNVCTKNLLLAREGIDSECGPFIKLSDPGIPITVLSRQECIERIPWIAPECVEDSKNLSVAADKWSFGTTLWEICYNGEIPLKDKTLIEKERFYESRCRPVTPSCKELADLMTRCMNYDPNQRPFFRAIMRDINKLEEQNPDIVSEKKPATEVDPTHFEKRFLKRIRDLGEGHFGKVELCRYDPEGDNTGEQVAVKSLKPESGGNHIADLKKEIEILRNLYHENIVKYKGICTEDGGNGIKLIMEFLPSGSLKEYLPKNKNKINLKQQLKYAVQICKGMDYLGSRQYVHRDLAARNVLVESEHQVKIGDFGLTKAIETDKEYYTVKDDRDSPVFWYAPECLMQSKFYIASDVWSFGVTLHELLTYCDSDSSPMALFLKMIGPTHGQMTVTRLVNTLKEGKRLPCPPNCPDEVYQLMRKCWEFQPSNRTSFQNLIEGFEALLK
Procedure: as §1

JAK 2 = JAK 2 (Homo sapiens (Human), UniProt O60674); test: Biochemical potency on JAK2, TR-FRET LANCE Ultra kinase assay (compounds 1-92); settings: ATP at Km, read-out: JAK2 inhibitory activity (pIC50 class) (converted)
Chain of JAK 2 (O60674 whole entry): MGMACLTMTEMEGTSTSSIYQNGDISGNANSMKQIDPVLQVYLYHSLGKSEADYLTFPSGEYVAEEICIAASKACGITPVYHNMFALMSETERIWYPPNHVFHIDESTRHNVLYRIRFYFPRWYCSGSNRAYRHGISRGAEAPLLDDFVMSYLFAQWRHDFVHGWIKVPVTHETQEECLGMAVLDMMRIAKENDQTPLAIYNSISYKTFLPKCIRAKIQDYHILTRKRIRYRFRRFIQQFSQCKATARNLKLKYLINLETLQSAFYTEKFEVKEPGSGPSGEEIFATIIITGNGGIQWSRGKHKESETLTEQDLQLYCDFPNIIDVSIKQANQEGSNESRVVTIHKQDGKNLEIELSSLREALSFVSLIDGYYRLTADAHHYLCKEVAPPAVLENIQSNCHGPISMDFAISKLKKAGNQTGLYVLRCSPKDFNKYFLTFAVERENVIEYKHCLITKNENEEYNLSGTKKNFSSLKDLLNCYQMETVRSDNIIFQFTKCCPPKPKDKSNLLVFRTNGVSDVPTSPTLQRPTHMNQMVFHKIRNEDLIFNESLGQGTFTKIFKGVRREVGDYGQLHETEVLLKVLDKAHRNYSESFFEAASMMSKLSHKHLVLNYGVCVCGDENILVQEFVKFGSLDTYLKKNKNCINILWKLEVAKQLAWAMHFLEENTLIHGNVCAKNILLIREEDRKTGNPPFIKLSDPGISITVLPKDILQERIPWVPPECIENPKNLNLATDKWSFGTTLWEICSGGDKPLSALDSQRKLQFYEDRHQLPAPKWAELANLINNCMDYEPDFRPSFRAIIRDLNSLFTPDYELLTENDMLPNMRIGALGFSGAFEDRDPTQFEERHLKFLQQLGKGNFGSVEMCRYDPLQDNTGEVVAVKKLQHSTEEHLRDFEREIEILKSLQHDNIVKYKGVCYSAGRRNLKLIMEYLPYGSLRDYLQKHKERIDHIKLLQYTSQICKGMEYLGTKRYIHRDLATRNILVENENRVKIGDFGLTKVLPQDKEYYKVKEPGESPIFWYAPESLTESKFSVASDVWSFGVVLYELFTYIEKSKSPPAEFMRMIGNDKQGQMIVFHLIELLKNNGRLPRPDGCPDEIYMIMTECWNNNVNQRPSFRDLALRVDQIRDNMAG
Procedure: as §1

JAK 3 = JAK 3 (Homo sapiens (Human), UniProt P52333); test: Biochemical potency on JAK3, TR-FRET LANCE Ultra kinase assay (compounds 1-92); settings: ATP at Km, read-out: JAK3 inhibitory activity (pIC50 class) (converted)
Chain of JAK 3 (P52333 whole entry): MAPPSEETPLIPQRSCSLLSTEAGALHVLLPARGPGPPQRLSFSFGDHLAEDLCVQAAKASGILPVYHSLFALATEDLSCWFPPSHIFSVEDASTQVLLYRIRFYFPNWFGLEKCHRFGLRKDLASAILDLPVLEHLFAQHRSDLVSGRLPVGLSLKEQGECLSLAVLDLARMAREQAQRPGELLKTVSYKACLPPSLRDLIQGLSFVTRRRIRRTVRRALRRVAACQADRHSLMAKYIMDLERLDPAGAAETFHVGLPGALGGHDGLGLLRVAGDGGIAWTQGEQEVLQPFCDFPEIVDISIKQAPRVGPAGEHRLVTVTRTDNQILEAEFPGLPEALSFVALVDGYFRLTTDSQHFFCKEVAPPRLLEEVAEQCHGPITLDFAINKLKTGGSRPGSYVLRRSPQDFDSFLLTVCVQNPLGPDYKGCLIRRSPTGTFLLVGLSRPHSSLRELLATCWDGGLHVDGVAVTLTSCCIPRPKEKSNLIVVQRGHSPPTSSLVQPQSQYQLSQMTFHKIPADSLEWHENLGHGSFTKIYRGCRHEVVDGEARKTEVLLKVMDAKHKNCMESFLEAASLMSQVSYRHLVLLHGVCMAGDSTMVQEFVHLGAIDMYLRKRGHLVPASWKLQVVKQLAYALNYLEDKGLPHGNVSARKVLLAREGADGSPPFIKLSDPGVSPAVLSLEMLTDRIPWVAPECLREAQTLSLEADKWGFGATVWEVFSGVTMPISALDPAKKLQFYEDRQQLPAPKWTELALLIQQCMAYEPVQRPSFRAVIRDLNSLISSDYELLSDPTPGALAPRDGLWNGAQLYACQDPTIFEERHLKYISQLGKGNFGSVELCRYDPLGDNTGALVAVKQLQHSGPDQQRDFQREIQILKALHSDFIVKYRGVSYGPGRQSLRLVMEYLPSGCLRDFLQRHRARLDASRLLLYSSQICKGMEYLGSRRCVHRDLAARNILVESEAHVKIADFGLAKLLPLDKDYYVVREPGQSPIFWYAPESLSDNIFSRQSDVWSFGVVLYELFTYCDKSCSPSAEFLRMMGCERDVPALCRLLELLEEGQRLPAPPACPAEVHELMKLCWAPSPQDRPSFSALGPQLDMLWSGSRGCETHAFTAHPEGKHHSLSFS
Procedure: as §1

Chain of TYK2 (P29597 whole entry, canonical isoform): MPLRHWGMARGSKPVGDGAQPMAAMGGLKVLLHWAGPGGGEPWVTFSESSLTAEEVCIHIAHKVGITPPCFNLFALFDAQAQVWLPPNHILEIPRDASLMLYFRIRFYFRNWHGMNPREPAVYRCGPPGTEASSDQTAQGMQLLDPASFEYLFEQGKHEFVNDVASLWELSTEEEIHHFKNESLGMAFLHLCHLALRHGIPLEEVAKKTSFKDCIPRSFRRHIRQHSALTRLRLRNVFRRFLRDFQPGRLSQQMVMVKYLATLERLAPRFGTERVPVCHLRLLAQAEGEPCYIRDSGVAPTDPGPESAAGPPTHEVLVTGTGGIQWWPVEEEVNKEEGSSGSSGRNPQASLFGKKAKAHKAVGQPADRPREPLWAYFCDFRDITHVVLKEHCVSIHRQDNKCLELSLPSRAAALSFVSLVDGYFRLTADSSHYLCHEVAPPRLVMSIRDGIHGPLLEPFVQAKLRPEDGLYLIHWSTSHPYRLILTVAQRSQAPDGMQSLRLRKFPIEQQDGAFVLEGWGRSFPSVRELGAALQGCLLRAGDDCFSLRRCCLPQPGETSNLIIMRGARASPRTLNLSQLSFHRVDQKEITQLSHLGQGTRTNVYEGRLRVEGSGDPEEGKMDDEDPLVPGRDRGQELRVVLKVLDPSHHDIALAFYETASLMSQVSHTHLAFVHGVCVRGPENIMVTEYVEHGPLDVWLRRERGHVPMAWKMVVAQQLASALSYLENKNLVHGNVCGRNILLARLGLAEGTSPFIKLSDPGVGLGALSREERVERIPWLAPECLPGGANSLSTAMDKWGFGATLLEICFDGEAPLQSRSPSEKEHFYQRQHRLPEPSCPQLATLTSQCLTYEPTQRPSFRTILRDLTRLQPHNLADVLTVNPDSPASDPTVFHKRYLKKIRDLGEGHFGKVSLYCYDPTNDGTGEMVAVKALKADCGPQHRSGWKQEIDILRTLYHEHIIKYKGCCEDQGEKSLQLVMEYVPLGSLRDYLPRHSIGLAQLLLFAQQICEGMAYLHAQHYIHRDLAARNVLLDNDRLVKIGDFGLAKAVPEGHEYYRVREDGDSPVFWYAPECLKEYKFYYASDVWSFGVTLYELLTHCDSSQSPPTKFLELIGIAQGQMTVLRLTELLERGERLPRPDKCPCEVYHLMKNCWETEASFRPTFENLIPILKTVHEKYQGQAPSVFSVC

Row | Compound | IC50 (TYK2) [nM] | IC50 (JAK 1) [nM] | IC50 (JAK 2) [nM] | IC50 (JAK 3) [nM]
1 | COc1cc(NS(=O)(=O)C2CC2)ccc1-n1nc(NCCN2CCCCC2)c2cnc(-c3cnn4cccnc34)cc21 [Example 36, N-(3-methoxy-4-(3-((2-(piperidin-1-yl)ethyl)amino)-6-(pyrazolo[1,5-a]pyrimidin-3-yl)-1H-pyrazolo[4,3-c]pyridin-1-yl)phenyl)cyclopropanesulfonamide] | 5.01 to 50.1 | 5.01 to 50.1 | 5.01 to 50.1 | 5.01 to 50.1
2 | COc1cc(NS(C)(=O)=O)ccc1-n1nc(NCCN2CCCCC2)c2cnc(-c3cnn4cccnc34)cc21 [Example 37, N-(3-methoxy-4-(3-((2-(piperidin-1-yl)ethyl)amino)-6-(pyrazolo[1,5-a]pyrimidin-3-yl)-1H-pyrazolo[4,3-c]pyridin-1-yl)phenyl)methanesulfonamide] | 5.01 to 50.1 | ≤ 5.01 | ≤ 5.01 | ≤ 5.01
3 | COc1cc(NS(C)(=O)=O)ccc1-n1nc(NCCN2CCN(C)CC2)c2cnc(-c3cnn4cccnc34)cc21 [Example 38, N-(3-methoxy-4-(3-((2-(4-methylpiperazin-1-yl)ethyl)amino)-6-(pyrazolo[1,5-a]pyrimidin-3-yl)-1H-pyrazolo[4,3-c]pyridin-1-yl)phenyl)methanesulfonamide] | 5.01 to 50.1 | ≤ 5.01 | ≤ 5.01 | ≤ 5.01
4 | COc1cc(NS(C)(=O)=O)ccc1-n1nc(NCCN(C)CCF)c2cnc(-c3cnn4cccnc34)cc21 [Example 39, N-(4-(3-((2-((2-fluoroethyl)(methyl)amino)ethyl)amino)-6-(pyrazolo[1,5-a]pyrimidin-3-yl)-1H-pyrazolo[4,3-c]pyridin-1-yl)-3-methoxyphenyl)methanesulfonamide] | 5.01 to 50.1 | ≤ 5.01 | ≤ 5.01 | ≤ 5.01
5 | COc1cc(NS(C)(=O)=O)ccc1-n1nc(N(C)CCN2CCOCC2)c2cnc(-c3cnn4cccnc34)cc21 [Example 40, N-(3-methoxy-4-(3-(methyl(2-morpholinoethyl)amino)-6-(pyrazolo[1,5-a]pyrimidin-3-yl)-1H-pyrazolo[4,3-c]pyridin-1-yl)phenyl)methanesulfonamide] | 5.01 to 50.1 | 5.01 to 50.1 | 5.01 to 50.1 | 5.01 to 50.1
6 | COc1cc(NS(C)(=O)=O)ccc1-n1nc(NC(=O)C2CCN(C)CC2)c2cnc(-c3cnn4cccnc34)cc21 [Example 41, N-(1-(2-methoxy-4-(methylsulfonamido)phenyl)-6-(pyrazolo[1,5-a]pyrimidin-3-yl)-1H-pyrazolo[4,3-c]pyridin-3-yl)-1-methylpiperidine-4-carboxamide] | 5.01 to 50.1 | ≤ 5.01 | ≤ 5.01 | ≤ 5.01
7 | COc1cc(NS(C)(=O)=O)ccc1-n1nc(C(=O)NCCCN(C)C)c2cnc(-c3cnn4cccnc34)cc21 [Example 43, N-(3-(dimethylamino)propyl)-1-(2-methoxy-4-(methylsulfonamido)phenyl)-6-(pyrazolo[1,5-a]pyrimidin-3-yl)-1H-pyrazolo[4,3-c]pyridine-3-carboxamide] | 5.01 to 50.1 | ≤ 5.01 | ≤ 5.01 | 5.01 to 50.1
8 | COc1cc(NS(C)(=O)=O)ccc1-n1nc(C(=O)NCCN(C)C)c2cnc(-c3cnn4cccnc34)cc21 [Example 44, N-(2-(dimethylamino)ethyl)-1-(2-methoxy-4-(methylsulfonamido)phenyl)-6-(pyrazolo[1,5-a]pyrimidin-3-yl)-1H-pyrazolo[4,3-c]pyridine-3-carboxamide] | 5.01 to 50.1 | ≤ 5.01 | ≤ 5.01 | ≤ 5.01
9 | COc1cc(NS(C)(=O)=O)ccc1-n1nc(C(=O)NCCN2CCOCC2)c2cnc(-c3cnn4cccnc34)cc21 [Example 45, 1-(2-methoxy-4-(methylsulfonamido)phenyl)-N-(2-morpholinoethyl)-6-(pyrazolo[1,5-a]pyrimidin-3-yl)-1H-pyrazolo[4,3-c]pyridine-3-carboxamide] | 5.01 to 50.1 | ≤ 5.01 | ≤ 5.01 | ≤ 5.01
10 | CCCS(=O)(=O)Nc1ccc(-n2nc(C(=O)NCCCN(C)C)c3cnc(-c4cnn5cccnc45)cc32)c(OC)c1 [Example 46, N-(3-(dimethylamino)propyl)-1-(2-methoxy-4-(propylsulfonamido)phenyl)-6-(pyrazolo[1,5-a]pyrimidin-3-yl)-1H-pyrazolo[4,3-c]pyridine-3-carboxamide] | > 50.1 | 5.01 to 50.1 | 5.01 to 50.1 | 5.01 to 50.1
11 | CCCS(=O)(=O)Nc1ccc(-n2nc(C(=O)NCCCN3CCOCC3)c3cnc(-c4cnn5cccnc45)cc32)c(OC)c1 [Example 47, 1-(2-methoxy-4-(propylsulfonamido)phenyl)-N-(3-morpholinopropyl)-6-(pyrazolo[1,5-a]pyrimidin-3-yl)-1H-pyrazolo[4,3-c]pyridine-3-carboxamide] | > 50.1 | 5.01 to 50.1 | 5.01 to 50.1 | 5.01 to 50.1
12 | COc1cc(NC(=O)c2ccccc2)cnc1-n1nc(C)c2cnc(-c3cnn4cccnc34)cc21 [Example 48, N-(5-methoxy-6-(3-methyl-6-(pyrazolo[1,5-a]pyrimidin-3-yl)-1H-pyrazolo[4,3-c]pyridin-1-yl)pyridin-3-yl)benzamide] | 5.01 to 50.1 | 5.01 to 50.1 | ≤ 5.01 | ≤ 5.01
13 | CNS(=O)(=O)c1ccc(-n2nc(C)c3cnc(-c4cnn5cccnc45)cc32)c(OC)c1 [Example 49, 3-methoxy-N-methyl-4-(3-methyl-6-(pyrazolo[1,5-a]pyrimidin-3-yl)-1H-pyrazolo[4,3-c]pyridin-1-yl)benzenesulfonamide] | > 50.1 | 5.01 to 50.1 | ≤ 5.01 | ≤ 5.01
14 | CNS(=O)(=O)c1ccc(-n2nc(NCCN3CCOCC3)c3cnc(-c4cnn5cccnc45)cc32)c(OC)c1 [Example 50, 3-methoxy-N-methyl-4-(3-((2-morpholinoethyl)amino)-6-(pyrazolo[1,5-a]pyrimidin-3-yl)-1H-pyrazolo[4,3-c]pyridin-1-yl)benzenesulfonamide] | 5.01 to 50.1 | ≤ 5.01 | ≤ 5.01 | ≤ 5.01
15 | CNc1nn(-c2ccc(S(=O)(=O)NC)cc2OC)c2cc(-c3cnn4cccnc34)ncc12 [Example 51, 3-methoxy-N-methyl-4-(3-(methylamino)-6-(pyrazolo[1,5-a]pyrimidin-3-yl)-1H-pyrazolo[4,3-c]pyridin-1-yl)benzenesulfonamide] | 5.01 to 50.1 | ≤ 5.01 | ≤ 5.01 | ≤ 5.01
16 | CNS(=O)(=O)c1ccc(-n2nc(NCCCN(C)C)c3cnc(-c4cnn5cccnc45)cc32)c(OC)c1 [Example 52, 4-(3-((3-(dimethylamino)propyl)amino)-6-(pyrazolo[1,5-a]pyrimidin-3-yl)-1H-pyrazolo[4,3-c]pyridin-1-yl)-3-methoxy-N-methylbenzenesulfonamide] | 5.01 to 50.1 | 5.01 to 50.1 | ≤ 5.01 | ≤ 5.01
17 | COc1cc(CNS(C)(=O)=O)ccc1-n1nc(NCCN2CCOCC2)c2cnc(-c3cnn4cccnc34)cc21 [Example 53, N-(3-methoxy-4-(3-((2-morpholinoethyl)amino)-6-(pyrazolo[1,5-a]pyrimidin-3-yl)-1H-pyrazolo[4,3-c]pyridin-1-yl)benzyl)methanesulfonamide] | 5.01 to 50.1 | ≤ 5.01 | ≤ 5.01 | ≤ 5.01
